Source: patent US20220064647A1, “COMPOSITIONS AND METHODS FOR TREATING CYSTIC FIBROSIS” (SpliSense Ltd., priority 2019, published 2022)

Biological target: T1, CFTR del Ex24 (Homo sapiens, UniProt P13569, DEL1292-1321)
T1 construct: expressed in transfected cells; host or cells: HEK 293 cells, transient transfection with Lipofectamine 2000
Assay: FLIPR membrane potential assay of CFTR function
Assay type: cell-based
Details: HEK 293 cells transiently transfected with CFTR del Ex24; activated by forskolin 10 uM; FIG. 1B
Description: HEK cells were transiently transfected with a construct bearing a CFTR transcript having exon 24 completely deleted from it (CFTR del Ex24). Transfection was carried out using Lipofectamine 2000 transfection reagent (Invitrogen) according to the lipofectamine 2000 reagent protocol using the following lipofectamine amounts: 96 well—0.15 μl, 6 well—3 μl, 10 mm plate—15 μl. HEK cells transfected with the CFTR del Ex24 construct were grown in 96-well (black, flat bottom; corning) plates. 48 hr post-transfection, CFTR channel function was analyzed using the FLIPR membrane potential assay as previously described (Molinski et al., 2015). Briefly, the cells were loaded with blue membrane potential dye (Molecular Devices), which can detect changes in transmembrane potential. The plate was then read in a fluorescence plate reader (BioTek Synergy H1) for baseline levels followed by CFTR stimulation using the cAMP agonist forskolin (10 μM; Sigma), DMSO vehicle was used as a negative control. CFTR-mediated depolarization of the plasma membrane was detected as an increase in fluorescence and hyperpolarization (or repolarization) as a decrease. […] FLIPR™ (Fluorescence Imaging Plate Reader) is a functional system that allows measuring changes in membrane potential by a fluorescent indicator. […]

T1 sequence (P13569 with tags, fused parts or gaps DEL1292-1321): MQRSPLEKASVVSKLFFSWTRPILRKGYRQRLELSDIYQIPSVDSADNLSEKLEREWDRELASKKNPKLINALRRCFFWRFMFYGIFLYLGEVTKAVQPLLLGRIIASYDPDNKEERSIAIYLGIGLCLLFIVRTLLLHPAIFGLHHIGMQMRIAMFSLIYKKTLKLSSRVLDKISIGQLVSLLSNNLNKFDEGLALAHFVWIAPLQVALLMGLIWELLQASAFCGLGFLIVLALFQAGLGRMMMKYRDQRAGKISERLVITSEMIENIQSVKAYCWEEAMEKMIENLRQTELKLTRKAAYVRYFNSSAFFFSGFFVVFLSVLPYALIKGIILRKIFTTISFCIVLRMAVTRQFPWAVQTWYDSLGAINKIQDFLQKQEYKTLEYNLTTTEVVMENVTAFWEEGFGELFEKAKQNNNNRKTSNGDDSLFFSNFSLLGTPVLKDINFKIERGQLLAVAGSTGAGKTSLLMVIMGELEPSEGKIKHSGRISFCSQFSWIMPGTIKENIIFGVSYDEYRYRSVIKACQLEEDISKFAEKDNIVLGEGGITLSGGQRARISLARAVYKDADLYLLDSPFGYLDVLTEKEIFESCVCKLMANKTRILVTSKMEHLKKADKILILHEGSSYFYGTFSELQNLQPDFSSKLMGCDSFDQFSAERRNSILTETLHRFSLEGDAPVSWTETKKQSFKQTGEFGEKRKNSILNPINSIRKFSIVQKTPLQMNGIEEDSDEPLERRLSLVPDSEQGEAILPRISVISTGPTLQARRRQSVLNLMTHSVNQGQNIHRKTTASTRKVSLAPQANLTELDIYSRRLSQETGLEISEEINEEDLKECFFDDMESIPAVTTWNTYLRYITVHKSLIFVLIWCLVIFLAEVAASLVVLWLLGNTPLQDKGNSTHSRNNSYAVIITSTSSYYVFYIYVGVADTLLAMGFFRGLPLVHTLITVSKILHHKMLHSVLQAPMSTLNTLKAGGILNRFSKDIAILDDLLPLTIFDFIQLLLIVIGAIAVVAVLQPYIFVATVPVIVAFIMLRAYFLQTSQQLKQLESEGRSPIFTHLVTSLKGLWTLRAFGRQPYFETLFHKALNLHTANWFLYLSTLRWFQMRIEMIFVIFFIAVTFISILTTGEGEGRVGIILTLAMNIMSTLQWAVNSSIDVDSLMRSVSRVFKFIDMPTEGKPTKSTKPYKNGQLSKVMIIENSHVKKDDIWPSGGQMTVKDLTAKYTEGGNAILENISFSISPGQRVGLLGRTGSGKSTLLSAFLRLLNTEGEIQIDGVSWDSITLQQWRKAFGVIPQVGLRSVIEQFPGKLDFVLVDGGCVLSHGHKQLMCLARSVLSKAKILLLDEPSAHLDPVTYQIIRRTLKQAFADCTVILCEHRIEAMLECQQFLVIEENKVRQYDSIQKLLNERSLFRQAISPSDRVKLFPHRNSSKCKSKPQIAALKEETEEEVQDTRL

## CC(C)(C)c1cc(C(C)(C)C)c(NC(=O)c2c[nH]c3ccccc3c2=O)cc1O [VX-770, N-(2,4-Di-tert-butyl-5-hydroxyphenyl)-4-oxo-1,4-dihydroquinoline-3-carboxamide]
  channel activation: 50 % of WT
